Data reported in patent US4628095A, “Substituted N-benzyl-4-(benzhydryl) piperidines” (G. D. Searle & Co., priority 1985, dated 1986).

How the values were obtained:
[1] = system: spontaneously hypertensive rat (SHR); experiment: Anti-hypertensive activity, unanesthetized spontaneously hypertensive rat (SHR) assay, mean arterial blood pressure; assay type: in vivo
Protocol: Male, unanesthetized spontaneously hypertensive rats, 11 to 16 weeks old were used in this test procedure. The compounds to be tested are administered intragastrically at a dose of 50 mg/kg or intraarterially/intraveneously at a dose of 10 mg/kg. or such other doses determined to be suitable for a specific test compound.
Initial mean arterial blood pressure was measured directly via a previously implanted arterial catheter immediately before administration of the test compound. Blood pressure readings were made at 1, 2, 3, and 4 hours following administration of the test compound. […] Statistical comparisons were made using the paired Student's T test with two sided probability calculations.

[2] = system: vascular smooth muscle (isolated thoracic aorta segments); experiment: Calcium antagonism in vascular smooth muscle, isolated thoracic aorta segments from male spontaneously hypertensive rat (pA2); assay type: cell-based; settings: for pA2 (Ca++ antagonism): test compound 1×10^-6 M, one hour incubation, K+ (100 mM) depolarized, considered active if pA2 is 6.0 or greater; for active in the foregoing test (vascular calcium antagonism): reference drugs
Protocol: Isolated thoracic aorta segments from the male spontaneously hypertensive rat were utilized in this test procedure.
The excised aorta segment was mounted in a tissue bath containing modified Krebs solution. After depolarization of the tissue with potassium (100 mM), calcium, in cumulative concentrations of 1×10^-3 M, 3.2×10^-3 M, and 1×10^-2 M was injected into the bath to produce vascular smooth muscle contraction. The developed tension (in grams) is measured and control dose-response values obtained. After one hour of incubation with a test compound at 1×10^-6 M concentration, the same doses of calcium ions were repeated. The log dose-response curves of the control and after treatment were analyzed by linear regression. The pA2 value was calculated as a measure of calcium antagonism of the test compound. See Van Rossum, J. M., Arch. Int. Pharmacodyn, 143, 299-330, 1963.
Calcium ions play an essential role in induction and maintenance of vascular smooth muscle contractility. In potassium depolarized vascular smooth muscle, calcium antagonists may block the entry of calcium ions into the cell or act by other mechanisms to inhibit the contractions induced by calcium ions. The inhibition of calcium ion-induced contraction of vascular smooth muscle is used to test compounds for vascular calcium antagonism. Cardiovascular diseases such as arrythmias, angina-pectoris, hypertension, and peripheral vascular disease may be causally related to abnormalities in cellular handling of calcium ions.

[3] = reference drugs, dose not given

C[C@](N)(Cc1ccc(O)c(O)c1)C(=O)O [Aldomet, reference compound]
active in the foregoing hypertensive rat assay [1, 3]: active

NNc1nncc2ccccc12 [Apresoline, reference compound]
active in the foregoing hypertensive rat assay ([1]; rat, in vivo): active

C[C@H](CS)C(=O)N1CCC[C@H]1C(=O)O [Captopril, reference compound]
active in the foregoing hypertensive rat assay [1, 3]: active

Clc1cccc(Cl)c1N=C1NCCN1 [Clonidine, reference compound]
active in the foregoing hypertensive rat assay ([1]; rat, in vivo): active

CN(C)c1ccc(CN2CCC(C(c3ccc(F)cc3)c3ccc(F)cc3)CC2)c(C(=O)NC(C)(C)C)c1 [Example 3, 2-[[4-[bis(4-fluorophenyl)methyl]-1-piperidinyl]methyl]-5-(dimethylamino)-N-(1,1-dimethylethyl)benzamide]
pA2 (Ca++ antagonism) [2]: inactive
SHR -mm Hg (dose), blood pressure change ([1]; 50 mpk-oral): -54 mm Hg

COC(=O)c1cc(N(C)C)ccc1CN1CCC(C(c2ccc(F)cc2)c2ccc(F)cc2)CC1 [Example 4, methyl 2-[[4-[bis(4-fluorophenyl)methyl]-1-piperidinyl]methyl]-5-(dimethylamino)benzoate]
pA2 (Ca++ antagonism) ([2]; 60 min, 1 µM): 7.78
SHR -mm Hg (dose), blood pressure change ([1]; 50 mpk-oral): -67 mm Hg

CNC(=O)c1cc(N(C)C)ccc1CN1CCC(C(c2ccccc2)c2ccccc2)CC1 [Example 5, 5-(dimethylamino)-2-[[4-(diphenylmethyl)-1-piperidinyl]methyl]-N-methylbenzamide]
pA2 (Ca++ antagonism) ([2]; 60 min, 1 µM): 7.25
SHR -mm Hg (dose), blood pressure change ([1]; 10 mpk-i.v.): -56 mm Hg

CN(C)c1ccc(CN2CCC(C(c3ccccc3)c3ccccc3)CC2)c(C(=O)NC(C)(C)C)c1 [Example 6, 5-(dimethylamino)-N-(1,1-dimethylethyl)-2-[[4-(diphenylmethyl)-1-piperidinyl]methyl]benzamide]
pA2 (Ca++ antagonism) ([2]; 60 min, 1 µM): 7.20
SHR activity (in words) ([1]; dose not given, active if mean post treatment blood pressure differs from control, p <= 0.05): inactive

COC(=O)c1cc(OC)ccc1CN1CCC(C(c2ccccc2)c2ccccc2)CC1 [Example 8, methyl 2-[[4-(diphenylmethyl)-1-piperidinyl]methyl]-5-methoxybenzoate]
SHR -mm Hg (dose), blood pressure change ([1]; 3-10 mpk-i.v.): -40 mm Hg

CN(C)c1ccc(C[N+]2([O-])CCC(C(c3ccccc3)c3ccccc3)CC2)cc1 (centres unmarked) [Example 9]
pA2 (Ca++ antagonism) [2]: inactive
SHR -mm Hg (dose), blood pressure change ([1]; 50 mpk-oral): -48 mm Hg

COC(=O)c1cc(N(C)C)ccc1CN1CCC(C(c2ccccc2)c2ccccc2)CC1 [Example 11, methyl 5-(dimethylamino)-2-[[4-(diphenylmethyl)-1-piperidinyl]methyl]benzoate]
pA2 (Ca++ antagonism) ([2]; 60 min, 1 µM): 7.65
SHR -mm Hg (dose), blood pressure change ([1]; 50 mpk-oral): -34 mm Hg

COc1ccc(CCN(C)CCCC(C#N)(c2ccc(OC)c(OC)c2)C(C)C)cc1OC (centres unmarked) [Verapamil, reference compound]
active in the foregoing test (vascular calcium antagonism) [2]: active

COc1ccc([C@@H]2Sc3ccccc3N(CCN(C)C)C(=O)[C@@H]2OC(C)=O)cc1 [diltiazem, reference compound]
active in the foregoing test (vascular calcium antagonism) [2]: active

COC(=O)C1=C(C)NC(C)=C(C(=O)OC)C1c1ccccc1[N+](=O)[O-] [nifedipine, reference compound]
active in the foregoing test (vascular calcium antagonism) [2]: active
